The record followed here is patent publication US20030032003A1, “IN VIVO SELECTION” (priority 2000, published 2003).

Read-outs that look alike come from different tables or passages of the source. Marks after values point to notes of the source that are not given here.

For the series, the system named is Hprt+/+ mice, recipients of Hprt−/− bone marrow and non-recipient controls.

As for `Nc1nc(S)c2[nH]cnc2n1` [6TG, 2-amino-6-merkaptopurine], the “toxic effect of 6TG” value (6TG treated bone marrow (BM) recipients) is on record as “did not show any apparent toxic effect”. For the same molecule, the body weight decrease result (6TG treated bone marrow recipients, first week after transplantation) is recorded as “about 10%”. Moreover, the Body weight is recorded as 91 (Bone marrow recipients +6TG, week 1); 89 (Bone marrow recipients +6TG, week 2); 90 (Bone marrow recipients +6TG, week 3); 90 (Bone marrow recipients +6TG, week 4); 88 (Bone marrow recipients +6TG, week 5); 93 (Bone marrow recipients +6TG, week 6). The Body weight is on record as 99 (Controls (non-recipients) +6TG, week 1); 100 (Controls (non-recipients) +6TG, week 2); 86* (Controls (non-recipients) +6TG, week 3, these mice died); 79* (Controls (non-recipients) +6TG, week 4, these mice died). Further, the “loss of body weight” value (non-recipient controls, during 3 weeks of 6TG treatment) came to 25%.
